Measured values reported in article PMC6829886, “Inhibition of Non-Small Cell Lung Cancer Cells by Oxy210, an Oxysterol-Derivative that Antagonizes TGFβ and Hedgehog Signaling” (Cells, 2019).
Like-named read-outs stand apart in the source and are kept apart here.

What was measured:
Format in all cases: cell-based, human
A549 cells [1] = assay: Cell counting (proliferation) assay in A549 cells; design: IC10 Estimate, dataset 2 - Fig 7a, log 10 scale Y: unit not given here; details: for IC50 / IC90: Homo sapiens
Protocol: A549 and H2030 cells cultured in RPMI 1640 containing 5% FBS in 12 well-plates at 20% confluence were treated with Oxy210 for 6 days and then trypsinized, spun down and resuspended in fresh medium. For the Carboplatin (CP) and Oxy210 co-treatment experiments, A549 cells cultured in RPMI 1640 containing 2% FBS in 12 well-plates at 20% confluence were treated with CP at different concentrations in the presence or absence of Oxy210 for 6 days. For the TGFβ-induced drug resistance assay, A549 cells cultured in RPMI 1640 containing 2% FBS in 12 well-plates at 10% confluence were pre-treated with TGFβ1 alone or together with Oxy210 for 3 days, and then treated with 20 μM CP for 4 days. An aliquot of cell suspension was applied to a hemocytometer and the cells were then counted under a light microscope.
Statistical analyses were performed using the StatView 5 program (SAS Institute, Cary, NC, USA). All p values were calculated using ANOVA and Fisher’s projected least significant difference (PLSD) significance test. A value of p < 0.05 was considered significant. The IC 50 dose-response curves shown in Figure 4b and Figure 7a–c were modeled using a five-parameter logistic model. This model allows for asymmetric curves and automatically estimates the mean maximum and minimum response. Based on this model, IC 50 values were estimated corresponding to the dose halfway between min and max response. Models of dose versus response and dose versus log response were also evaluated (see Supplementary Materials). The R square statistic was computed as a measure of model fit.
Figure 7 Inhibition of NSCLC cell proliferation by Oxy210. A549 (a), (c) and H2030 (b) cells were treated with the test agents as indicated in RPMI 1640 containing 5% FBS for 5 days and then were trypsinized and counted as described in Methods and Materials section. Data from a representative experiment are reported as the mean of triplicate determinations ± SD (* p < 0.05 vs. control; ** p < 0.01 vs. control).

H2030 cells = assay: TGFβ-induced EMT gene expression in H2030 cells; details: 48 h
Protocol: Total RNA was extracted with the RNeasy Plus Mini Kit from Qiagen (Hilden, Germany) according to the manufacturer’s instructions. One microgram of RNA was reverse-transcribed using an iScript Reverse Transcription Supermix from Bio-Rad Laboratories (Hercules, CA, USA) to make single-stranded cDNA. The cDNAs were then mixed with Qi SYBR Green Supermix (Bio-Rad) for quantitative RT-PCR assay using a Bio-Rad I-cycler IQ quantitative thermocycler. All PCR samples were prepared in triplicate wells in a 96-well plate. After 40 cycles of PCR, melt curves were examined in order to ensure primer specificity. Fold changes in gene expression were calculated using the ΔΔCt method. Primers used for mouse were as follows: Oaz1 (5′-CCACTGCTTCGCCAGAGAG-3′) and (5′-CCCGGACCCAGGTTACTA-3′), Gli1 (5′- […]-3′ and 5′- GCT GATCCAGCCTAAGGTTCTC-3′), Ptch1 (5′-CCATCGGCGACAAGAACC-3′ and 5′-[…]-3′), Thbs1 (5′-[…]-3′ and 5′-CGGGGATCAGGTTGGCATT-3′), Cryab (5′-[…]-3′ and 5′-[…]-3′), Egr2 (5′-[…]-3′ and 5′-[…]-3′), CTGF (5′-GGGCCTCTTCTGCGATTTC-3′ and 5′-[…]-3′). […]
Figure 8 Inhibition of TGFβ-induced EMT in NSCLC cells. […] After 48 h, RNA was extracted and analyzed by Q-RT-PCR for the expression of the genes as indicated and normalized to GAPDH expression. […]

A549 cells [2] = assay: Matrigel invasion assay; details: Matrigel chambers, 24 h
Protocol: Invasion assays were performed using 24-well Matrigel invasion chambers (Corning, Corning, NY, USA), with the protocol provided by the manufacturer. A549 cells in 6-well plate starved in RPMI 1640 containing 0.1% FBS for 24 h were pre-treated with Oxy210 or DMSO for 2 h. 2 × 10^4 cells were seeded in each of the upper chambers containing RPMI 1640 supplemented with 0.1% FBS and the test agents. Each of the lower chambers contained RPMI 1640 supplemented with 5% FBS and the corresponding test agents. The cells were cultured for 24 h before assessment of cell invasion. Non-invaded cells in the upper surface of the membrane were removed using a cotton swab and the invaded cells in the lower surface were fixed and stained with 100% methanol and 0.4% trypan blue, respectively. The invaded cells were imaged and counted under the microscope at 40X total magnification.
Figure 9 Inhibition of TGFβ-induced invasive activity of A549 cells. In vitro invasion assays were performed using chambers with matrigel-coated membrane as described in the Materials and Methods section. (a) Images of invaded cells on the membranes. (b) Quantitative analysis of invasion of A549 cells induced by TGFβ in the absence or presence of Oxy210. Data from a representative experiment are reported as the mean of triplicate determinations ± SD (** p < 0.01 vs. TGFβ treated cells; ## p < 0.01 vs. control).

Q: Which “fold reduction (left shift) of the IC50 of CP” value (A549 cells [1]; A549 cells, 2 μM Oxy210) does the source give for `C[C@]12CC[C@H]3[C@@H](CC=C4C[C@@H](O)CC[C@@]43C)[C@@H]1CC[C@@H]2[C@](C)(O)CCc1cccnc1` [Oxy210, (3S,8S,9S,10R,13S,14S,17S)-17-((R)-2-hydroxy-4-(pyridin-3-yl)butan-2-yl)-10,13-dimethyl-2,3,4,7,8,9,10,11,12,13,14,15,16,17-tetradecahydro-1H-cyclopenta[a]phenanthren-3-ol] here?
A: about four-fold

Q: What about the “anti-proliferation potential of CP when combined” value (A549 cells [1]; A549 cells, non-cytotoxic concentrations of CP (1 to 10 μM)) of the same molecule?
A: significantly improved

Q: What about the “IC10 Estimate, dataset 2 - Fig 7a, log 10 scale Y” value (A549 cells [1]; A549 cells/well, log 10 scale Y) of the same molecule?
A: 2.61

Q: And the IC10 Estimate, dataset 2 - Fig 7a, original scale Y (A549 cells [1]; A549 cells/well, original scale Y)?
A: 1.92 µM

Q: What about the IC50 (A549 cells [1]; A549 cells, 5% FBS, ± SE, read-out: IC50, anti-proliferative effect (cell counting)) of the same molecule?
A: 2.63 ± 1.01 µM

Q: What about the IC50 (A549 cells [1]; A549 cells/well, log 10 scale Y, read-out: IC 50 Estimate, dataset 2 - Fig 7a, log 10 scale Y (converted)) of the same molecule?
A: 4.23 µM

Q: What about the IC90 (A549 cells [1]; A549 cells/well, log 10 scale Y, read-out: IC90 Estimate, dataset 2 - Fig 7a, log 10 scale Y (converted)) of the same molecule?
A: 6.87 µM

Q: And the IC90 (A549 cells [1]; A549 cells/well, original scale Y, read-out: IC90 Estimate, dataset 2 - Fig 7a, original scale Y)?
A: 4.18 µM

Q: And the “genes associated with TGFβ-induced EMT” value (H2030 cells)?
A: complete suppression

Q: What about the TGFβ-induced invasive activity (A549 cells [2]) of the same molecule?
A: inhibited this invasive activity in a dose dependent manner
